Measurements taken from ChEMBL document CHEMBL3045809, “Susceptibility of adult Trichogramma nubilale (Hymenoptera: Trichogrammatidae) to selected insecticides with different modes of action” (Crop Prot, 2012).

What was measured:
Trichogramma nubilale [1] = assay: Contact toxicity against Trichogramma nubilale assessed as mortality after 24 hr by modified slight dry film method; format: functional
Trichogramma nubilale [2] = tested on: Trichogramma nubilale

Compound	LC50 (Trichogramma nubilale [1])	LC95 (Trichogramma nubilale [1])	LC50 (Trichogramma nubilale [2])	LC95 (Trichogramma nubilale [2])
CNC(=O)Oc1cccc(C)c1 [METOLCARB]	0.53 mgAi/L	5.2 mgAi/L	–	–
CCOP(=S)(OCC)O/N=C(\C#N)c1ccccc1 [PHOXIM]	0.14 mgAi/L	1.35 mgAi/L	–	–
CNC(=O)Oc1cc(C)cc(C(C)C)c1 [PROMECARB]	0.32 mgAi/L	1.91 mgAi/L	–	–
CCOP(=S)(OCC)Oc1ncn(-c2ccccc2)n1 [TRIAZOPHOS]	1.81 mgAi/L	21.65 mgAi/L	–	–
CCOP(=S)(OCC)Oc1nc(Cl)c(Cl)cc1Cl [CHLORPYRIFOS]	0.081 mgAi/L	0.45 mgAi/L	–	–
C=C(C)CNc1c([S+]([O-])C(F)(F)F)c(C#N)nn1-c1c(Cl)cc(C(F)(F)F)cc1Cl (stereo not given) [BUTENE-FIPRONIL]	0.0068 mgAi/L	0.0419 mgAi/L	–	–
CC[C@H](C)[C@H]1O[C@]2(C=C[C@@H]1C)C[C@@H]1C[C@@H](C/C=C(\C)[C@@H](O[C@H]3C[C@H](OC)[C@@H](O[C@H]4C[C@H](OC)[C@@H](O)[C@H](C)O4)[C@H](C)O3)[C@@H](C)/C=C/C=C3\CO[C@@H]4[C@H](O)C(C)=C[C@@H](C(=O)O1)[C@]34O)O2.CO[C@H]1C[C@H](O[C@H]2[C@H](C)O[C@@H](O[C@@H]3/C(C)=C/C[C@@H]4C[C@@H](C[C@]5(C=C[C@H](C)[C@@H](C(C)C)O5)O4)OC(=O)[C@@H]4C=C(C)[C@@H](O)[C@H]5OC/C(=C\C=C\[C@@H]3C)[C@]54O)C[C@@H]2OC)O[C@@H](C)[C@@H]1O [ABAMECTIN]	3.57 mgAi/L	25.42 mgAi/L	–	–
O=[N+]([O-])/N=C1\NCCN1Cc1ccc(Cl)nc1 [IMIDACLOPRID]	311.9 mgAi/L	2675 mgAi/L	–	–
CC1(C)C(C=C(Cl)Cl)C1C(=O)OC(C#N)c1cccc(Oc2ccccc2)c1 (stereo not drawn) [ALPHA-CYPERMETHRIN]	19.48 mgAi/L	176.8 mgAi/L	–	–
CC1(C)[C@H](/C=C(\Cl)C(F)(F)F)[C@@H]1C(=O)O[C@@H](C#N)c1cccc(Oc2ccccc2)c1 (relative stereo) [REL-LAMBDA CYHALOTHRIN]	13.69 mgAi/L	127.6 mgAi/L	–	–
COP(=S)(OC)Oc1ccc([N+](=O)[O-])c(C)c1 [FENITROTHION]	2.1 mgAi/L	34.74 mgAi/L	–	–
CC1(C)C(C(=O)OC(C#N)c2cccc(Oc3ccccc3)c2)C1(C)C (stereo not given) [FENPROPATHRIN]	150.3 mgAi/L	1327.5 mgAi/L	–	–
CC1(C)C(/C=C(\Cl)C(F)(F)F)C1C(=O)OC(C#N)c1cccc(Oc2ccccc2)c1 (stereo not given) [CYHALOTHRIN]	10.98 mgAi/L	93.25 mgAi/L	–	–
CCc1ccc(C(=O)NN(C(=O)c2cc(C)cc(C)c2)C(C)(C)C)cc1 [TEBUFENOZIDE]	3452 mgAi/L	21616 mgAi/L	–	–
C/C(=N\C#N)N(C)Cc1ccc(Cl)nc1 [ACETAMIPRID]	19.24 mgAi/L	167.9 mgAi/L	–	–
O=[N+]([O-])/N=C1\NCCN1Cc1cnc(Cl)s1 [IMIDACLOTHIZ]	75.27 mgAi/L	636.5 mgAi/L	–	–
O=C(NC(=O)c1c(F)cccc1F)Nc1cc(Cl)c(OC(F)(F)C(F)F)c(Cl)c1 [HEXAFLUMURON]	9672 mgAi/L	51197 mgAi/L	–	–
O=C(NC(=O)c1c(F)cccc1F)Nc1cc(Cl)c(Oc2ncc(C(F)(F)F)cc2Cl)c(Cl)c1 [CHLORFLUAZURON]	7533 mgAi/L	111205 mgAi/L	–	–
CCCCN(CCCC)SN(C)C(=O)Oc1cccc2c1OC(C)(C)C2 [CARBOSULFAN]	0.95 mgAi/L	7.4 mgAi/L	–	–
IVERMECTIN	–	–	2.36 mgAi/L	15.2 mgAi/L
CC[S+]([O-])c1c(C#N)nn(-c2c(Cl)cc(C(F)(F)F)cc2Cl)c1N (stereo not given) [ETHIPROLE]	4.67 mgAi/L	21.35 mgAi/L	–	–
CCN(Cc1ccc(Cl)nc1)/C(=C/[N+](=O)[O-])NC [NITENPYRAM]	4.37 mgAi/L	31.37 mgAi/L	–	–
N#Cc1nn(-c2c(Cl)cc(C(F)(F)F)cc2Cl)c(N)c1[S+]([O-])C(F)(F)F (stereo not given) [FIPRONIL]	0.29 mgAi/L	1.82 mgAi/L	–	–
CNC(=O)Oc1cccc2ccccc12 [CARBARIL]	–	5.71 mgAi/L	–	–
CCCSP(=O)(OCC)Oc1ccc(Br)cc1Cl (stereo not given) [PROFENOFOS]	0.18 mgAi/L	1.73 mgAi/L	–	–
CN1COCN(Cc2cnc(Cl)s2)/C1=N\[N+](=O)[O-] [THIAMETHOXAM]	1.86 mgAi/L	13.35 mgAi/L	–	–
CNC(=O)Oc1ccccc1C(C)C [ISOPROCARB]	0.12 mgAi/L	0.95 mgAi/L	–	–
N#C/N=C1\SCCN1Cc1ccc(Cl)nc1 [THIACLOPRID]	56.73 mgAi/L	461.2 mgAi/L	–	–
